Positions count from the first letter of the chain named.
Experiments:
Test in all cases: KINOMEscan kinase binding assay (Eurofins/DiscoveRx), % Ctrl
Details in all cases: 1 μM
kinases [1] = target: T1, kinases (Homo sapiens, UniProt P00519, T315I)
T1 construct: purchased Eurofins/DiscoveRx; host or cells: E. coli BL21-derived host (T7 phage display) for most kinases; HEK-293 for the rest
Summary of the method: (§1)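 Competition binding, 1 h RT: phage-tagged or HEK-293-expressed DNA-tagged kinase + immobilized ligand + compound. Eluate kinase by qPCR. % Ctrl = (test − positive ctrl)/(negative ctrl − positive ctrl) × 100; lower means stronger binding.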

kinases [2] = target: T2, kinases (Homo sapiens, UniProt P10721, A829P)
T2 construct: purchased Eurofins/DiscoveRx; host or cells: E. coli BL21-derived host (T7 phage display) for most kinases; HEK-293 for the rest
Summary of the method: as §1

kinases [3] = target: T3, kinases (Homo sapiens, UniProt P36888)
T3 construct: purchased Eurofins/DiscoveRx; host or cells: E. coli BL21-derived host (T7 phage display) for most kinases; HEK-293 for the rest
T3 sequence (P36888 27-993): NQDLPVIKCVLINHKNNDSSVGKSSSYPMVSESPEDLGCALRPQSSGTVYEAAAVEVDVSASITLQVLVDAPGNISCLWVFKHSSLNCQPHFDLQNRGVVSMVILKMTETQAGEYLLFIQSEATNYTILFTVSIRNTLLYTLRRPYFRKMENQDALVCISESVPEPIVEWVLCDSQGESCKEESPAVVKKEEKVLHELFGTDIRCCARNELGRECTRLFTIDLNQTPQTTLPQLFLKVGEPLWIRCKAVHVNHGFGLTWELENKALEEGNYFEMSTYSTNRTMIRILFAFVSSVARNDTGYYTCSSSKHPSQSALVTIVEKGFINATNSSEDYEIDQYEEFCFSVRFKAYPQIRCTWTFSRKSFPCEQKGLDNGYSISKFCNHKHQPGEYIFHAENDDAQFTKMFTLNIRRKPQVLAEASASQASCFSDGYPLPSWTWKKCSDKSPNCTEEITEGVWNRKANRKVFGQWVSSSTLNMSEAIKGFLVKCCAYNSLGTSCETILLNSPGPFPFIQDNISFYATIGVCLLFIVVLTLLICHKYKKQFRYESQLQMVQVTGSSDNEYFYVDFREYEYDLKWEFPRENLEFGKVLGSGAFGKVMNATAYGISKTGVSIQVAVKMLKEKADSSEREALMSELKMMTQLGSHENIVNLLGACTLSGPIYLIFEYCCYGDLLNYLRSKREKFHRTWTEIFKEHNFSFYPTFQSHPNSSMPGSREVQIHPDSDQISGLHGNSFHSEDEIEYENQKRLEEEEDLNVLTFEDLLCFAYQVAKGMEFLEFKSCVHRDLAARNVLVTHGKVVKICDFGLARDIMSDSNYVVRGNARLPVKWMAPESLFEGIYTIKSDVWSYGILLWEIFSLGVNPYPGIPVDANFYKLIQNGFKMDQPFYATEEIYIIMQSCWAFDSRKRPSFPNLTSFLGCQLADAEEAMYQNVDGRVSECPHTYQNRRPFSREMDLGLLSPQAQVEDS
Summary of the method: as §1

kinases [4] = target: T4, kinases (Homo sapiens, UniProt P36888, K663Q)
T4 construct: purchased Eurofins/DiscoveRx; host or cells: E. coli BL21-derived host (T7 phage display) for most kinases; HEK-293 for the rest
T4 sequence (P36888 27-993 K663Q): T3 sequence (P36888 27-993) with K637Q
Summary of the method: as §1

[5] = target ABL1(T315I)-nonphosphorylated
[6] = target ABL1(T315I)-phosphorylated

T2 sequence (P10721 26-976 A829P): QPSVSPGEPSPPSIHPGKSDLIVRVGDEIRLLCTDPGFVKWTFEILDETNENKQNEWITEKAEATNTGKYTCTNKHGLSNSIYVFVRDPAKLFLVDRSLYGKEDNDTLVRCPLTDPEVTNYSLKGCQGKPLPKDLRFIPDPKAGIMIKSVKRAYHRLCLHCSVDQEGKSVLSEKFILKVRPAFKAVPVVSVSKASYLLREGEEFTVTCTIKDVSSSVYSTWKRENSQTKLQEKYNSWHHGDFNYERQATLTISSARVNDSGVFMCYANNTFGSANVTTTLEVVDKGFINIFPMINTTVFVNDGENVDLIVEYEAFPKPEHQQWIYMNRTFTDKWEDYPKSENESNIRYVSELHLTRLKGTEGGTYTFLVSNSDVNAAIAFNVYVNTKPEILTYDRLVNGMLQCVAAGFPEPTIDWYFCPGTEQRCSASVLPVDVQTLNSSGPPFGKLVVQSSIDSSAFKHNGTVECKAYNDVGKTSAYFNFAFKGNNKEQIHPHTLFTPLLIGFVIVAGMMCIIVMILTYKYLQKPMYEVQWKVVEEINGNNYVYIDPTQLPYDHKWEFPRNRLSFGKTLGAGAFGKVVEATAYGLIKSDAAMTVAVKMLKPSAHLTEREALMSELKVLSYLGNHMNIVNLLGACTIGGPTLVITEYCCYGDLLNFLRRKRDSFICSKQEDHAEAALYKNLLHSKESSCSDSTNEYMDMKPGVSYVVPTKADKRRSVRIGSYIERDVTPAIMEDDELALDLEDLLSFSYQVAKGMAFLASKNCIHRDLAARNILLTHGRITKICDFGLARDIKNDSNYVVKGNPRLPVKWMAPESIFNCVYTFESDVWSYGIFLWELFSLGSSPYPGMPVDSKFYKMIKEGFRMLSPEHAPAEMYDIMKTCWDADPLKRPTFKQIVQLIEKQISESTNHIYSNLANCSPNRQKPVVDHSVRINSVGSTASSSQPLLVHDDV

Row | SMILES | % Ctrl, ABL1(T315I)-nonphosphorylated (kinases [1]; ABL1(T315I)-nonphosphorylated) [% Ctrl] | % Ctrl, ABL1(T315I)-phosphorylated (kinases [1]; ABL1(T315I)-phosphorylated) [% Ctrl] | % Ctrl, KIT(A829P) (kinases [2]; KIT(A829P)) [% Ctrl] | % Ctrl, FLT3 (kinases [3]; FLT3) [% Ctrl] | % Ctrl, FLT3-autoinhibited (kinases [3]; FLT3-autoinhibited) [% Ctrl] | % Ctrl, FLT3(K663Q) (kinases [4]; FLT3(K663Q)) [% Ctrl] | % Ctrl, ABL1(T315I)-nonphosphorylated (kinases [1]; [5]) [% Ctrl] | % Ctrl, ABL1(T315I)-phosphorylated (kinases [1]; [6]) [% Ctrl] | % Ctrl, KIT(A829P) (kinases [2]; target KIT(A829P)) [% Ctrl] | % Ctrl, FLT3-autoinhibited (kinases [3]; target FLT3-autoinhibited) [% Ctrl] | % Ctrl, FLT3 (kinases [3]; target FLT3) [% Ctrl] | % Ctrl, FLT3(K663Q) (kinases [4]; target FLT3(K663Q)) [% Ctrl]
1 | Cc1cc2c([nH]1)/C=C1\C(=O)Nc3ccc(cc31)-c1cnn(C)c1CNCCN(C)C2=O [Ex. 125, [3a(4)Z]-6,9,14-trimethyl-9,10,11,12,13,14-hexahydro-1,17-(ethanediylidene)pyrazolo[4,3-m]dipyrrolo[3,2-f:3′,4′-i][1,4]diazacyclopentadecine-3,8(2H,5H)-dione] | 0 | 0.1 | 2.6 | 0.45 | 0.15 | 1.4 | – | – | – | – | – | –
2 | Cc1cc2c([nH]1)/C=C1\C(=O)Nc3cnc(cc31)-c1cn[nH]c1CNCCN(C)C2=O [Ex. 55, [3a(4)Z]-6,9-dimethyl-9,10,11,12,13,14-hexahydro-17,1-(azenometheno)pyrazolo[4,3-m]dipyrrolo[3,2-f:3′,4′-i][1,4]diazacyclopentadecine-3,8(2,5H)-dione] | – | – | – | – | – | – | 1.6 | 2.6 | 39 | 10 | 11 | 1.2
3 | Cc1cc2c([nH]1)/C=C1\C(=O)Nc3ccc(cc31)-c1c(noc1C)CNCCN(C)C2=O [Ex. 139, [3a(4)Z]-6,9,16-trimethyl-10,11,12,13-tetrahydro-2H-1,17-(ethanediylidene)[1,2]oxazolo[4,3-m]dipyrrolo[3,2-f:3′,4′-i][1,4]diazacyclopentadecine-3,8(5H,9H)-dione] | – | – | – | – | – | – | 0.1 | 3 | 74 | 67 | 33 | 44
4 | Cc1cc2c([nH]1)/C=C1\C(=O)Nc3ccc(cc31)-c1ccnn1CCNCCNC2=O [Ex. 43, [19a(20)Z]-2-methyl-5,6,7,8,9,10-hexahydro-15,17-(ethanediylidene)pyrazolo[1,5-g]dipyrrolo[3,4-k:2′,3′-n][1,4,7]triazacyclohexadecine-4,19(1H,18H)-dione] | 68 | 75 | 77 | 99 | 77 | 72 | – | – | – | – | – | –
5 | Cc1cc2c([nH]1)/C=C1\C(=O)Nc3ccc(cc31)-c1cnn(C)c1COCCN(C)C2=O [Ex. 124, [3a(4)Z]-6,9,14-trimethyl-10,11,13,14-tetrahydro-2H-1,17-(ethanediylidene)pyrazolo[4,3-m]dipyrrolo[3,2-f:3′,4′-i][1,4]oxazacyclopentadecine-3,8(5H,9H)-dione] | 0 | 0.1 | 4.3 | 0.15 | 0.35 | 13 | – | – | – | – | – | –
6 | CN1CCOCCOc2cc3c(cc2Cl)NC(=O)/C3=C\c2[nH]ccc2C1=O [Ex. 143, [16a(17)Z]-19-chloro-2,5-dimethyl-6,7,9,10-tetrahydro-1H-12,14-(ethanediylidene)dipyrrolo[3,2-i:3′,4′-l][1,4,7]oxathiazacyclopentadecine-4,16(5H,15H)-dione] | – | – | – | – | – | – | 42 | 27 | 51 | 62 | 15 | 11
